For orientation: EC50 means the concentration at which the effect is half-maximal. By EC90 is commonly meant the concentration needed for an effect of 90%.

One assay relates to PsV of HPV-16. Kind of assay: microbe, parasite or virus in culture. It is filed as cell-based, human papillomavirus.
In assay [1] the test system is human rotavirus Wa. Kind of assay: Infectivity assay for rotavirus, MA104 cells, strain Wa.
Protocol: (§2) The strains of human rotavirus Wa (ATCC® VR-2018), WI61 (ATCC® VR-2551), HRV 408 (ATCC® VR-2273), HRV 248 (ATCC® VR-2274) and DS-1 (ATCC® VR-2550) were acquired from the American Tissue Culture Collection (ATCC); the viruses were activated with 5 μg/ml porcine pancreatic trypsin of type IX (Sigma, St. Louis, Mo.) for 30 minutes at 37° C. and propagated in MA104 cells using MEM containing 0.5 μg of trypsin per ml as described previously (27).
(§3) The antiviral effectiveness of the oxysterols of the invention was determined by means of infectivity inhibition assay. The assays were performed with confluent monolayers of MA104 cells seeded in plates with 96 wells, as described previously (28). […] The control samples were prepared by treating the cells with culture medium with the addition of equal volumes of ethanol. The cells were then washed with medium, and the rotavirus infection was performed at a multiplicity of infection (MOI) of 0.02. After the infection, the cells were washed with medium and incubated at 37° C. in an incubator humidified at 5% (vol/vol) CO2-95% (vol/vol) of air. After 16 hours, the infected cells were fixed with a cold acetone-methanol mixture (50:50), and the virus titres were determined by means of indirect immunocytochemistry. The inhibition of the virus infectivity was expressed as a percentage comparing the mean number of infective events in the treated and non-treated samples±the standard deviations. Where possible, the values of the oxysterol concentrations able to determine 50% or 90% of the antiviral effect (EC50 and EC90 respectively) were calculated by means of regression analysis using the dose-response curves generated by the experimental data, with the use of PRISM 5.00 (GraphPad Software, San Diego, Calif., USA).
The test system of assay [2] is human rhinovirus 1A. The assay can be described thus: Infectivity assay with rhinovirus (plaque count, HeLa cells).
Protocol: The human rhinovirus 1A (ATCC® VR-1559) was acquired from ATCC. The virus was propagated in HeLa cells, at 33° C. with 5% of CO2. When the cytopathic effect (CPE) had fully developed, cells and supernatants were collected, frozen and thawed three times, clarified and divided into aliquots. The viruses were kept at −70° C. The rhinovirus titres were determined by means of the standard plaque assay. In short, the HeLa cells were seeded 2 days prior to the infection in plates with 96 wells, reaching 60%-70% confluence at the time of the infection. The viral suspension was serially diluted in DMEM supplemented with 2% fetal bovine serum and inoculated; the infected wells were incubated at 33° C. for 1 hour, allowing the viruses to adhere and enter the cells. The cells were subsequently washed with medium and covered with a 1:1 mixture of 1.6% SeaPlaque agarose (BioWhittaker Molecular Applications) and DMEM 2X [26.76 g DMEM (Gibco BRL), 20 ml of L-glutamine (Gibco BRL), 4.4 g of sodium bicarbonate (Sigma, St. Louis, Mo.), FBS 40 ml (Sigma, St. Louis, Mo.) and 1000 ml of water]. The plates were incubated at 33° C. for 3 days. At the end of the incubation, the plates were fixed with 7.5% formaldehyde (Fluka) and coloured with crystal violet (Sigma, St. Louis, Mo.). The number of plaques formed was then counted; the virus titres were expressed in terms of plaque-forming units per ml (PFU/ml).
The HeLa cells, kept in DMEM supplemented with 10% FBS and 1% Zell Shield, were seeded (at 8×10^4 cells/well) in plates with 24 wells. The medium was removed and the cells were infected with 200 microlitres/well containing approximately 30 PFU of a stock of human rhinovirus 1A. The infected cells were incubated at 33° C. for 1 h, allowing the virus to adhere and enter the cells. […] The plates were incubated at 33° C. for 5 days. After the incubation, the plates were fixed with formaldehyde at 7.5% (Fluka), coloured with crystal violet (Sigma, St. Louis, Mo.) and the number of plaques formed was counted. The oxysterol concentration values able to determine 50% or 90% of the antiviral effect (EC50 and EC90 respectively) were calculated by means of regression analysis using the dose-response curves generated by the experimental data, using PRISM 5.00 (GraphPad Software, San Diego, Calif., USA).
For another assay, the system named is human rotavirus DS-1. Kind of assay: Infectivity assay for rotavirus, MA104 cells, strain DS-1.
Another assay concerns LXR. As to conditions: cited from earlier work.
The test system of assay [3] is human rotavirus. The assay can be described thus: Target identification by siRNA sensitization (TISS), human rotavirus, Caco2 cells. As to conditions: oxysterol at its EC50.
Protocol: This mechanism of action vis-à-vis the rotavirus was therefore investigated, performing a target identification assay by means of sensitization with short interfering RNA (siRNA). The Caco2 cells (for the experiments with human rotavirus) or the HeLa cells (for the experiments with human papillomavirus) were seeded in a plate with 24 wells; during seeding, the cells were transfected with siRNA specific for OSBP and VAPA (at a concentration of 20 nM). […] After one day, the medium was removed and the cells inoculated with the respective viruses in the same time, temperature and MOI conditions described in the protocols of the infectivity or neutralization assays. The number of infected cells was evaluated as described in the preceding paragraphs.
In another assay the test system is TLR4. As to conditions: cited from earlier work.
Another assay has as its system human rotavirus WI61. Kind of assay: Infectivity assay for rotavirus, MA104 cells, strain WI61.
Another assay has as its system TLR3. Kind of assay: Quantitative real time RT-PCR of TLR-3 in Caco2 cells. In kind it is cell-based, human. As to conditions: CaCo2 intestinal cells, 1.9 μM, 30 minutes to 6 hours. How it is done:
The Caco2 cells were cultivated in DMEM medium containing 10% serum and seeded in 25 cm^2 flasks (8 million confluence cells). The next day the cells were treated, in DMEM medium containing 2% serum, with 1.9 μM 25OHC or 27OHC (dissolved in ethanol) for 30 minutes, 1, 2, 3, 4, 5 or 6 hours. Extraction of the total RNA was performed using the TRIzol Reagent (Applied Biosystems, Monza, Italy) and the quantity and purity (A260/A280 ratio) of the extracted RNA were spectrophotometrically measured. Subsequently, 2 μg of RNA were retrotranscribed using the High-Capacity cDNA Reverse Transcription Kit (Applied Biosystems). Quantitative RT-PCR was performed with 30 ng of cDNA using the “TaqMan Gene Expression Assay kits” for TLR-3 and β-actin, TaqMan Fast Universal PCR Master Mix, and 7500 Fast Real-Time PCR System (Applied Biosystems). For each gene considered, the threshold cycle (Ct) was determined and the results were normalized using β-actin as a reference gene. The relative quantification was performed using a mathematical method previously published (29). In FIGS. 1a-1b, the results are reported as increment of the genic expression (Fold change, Fc) of the treated samples with respect to the controls.
In general terms: Quantitative PCR measures a nucleic acid by following its amplification.

In assay [4] the test system is human rotavirus (strain Wa). Kind of assay: Rotavirus yield reduction assay. It is filed as cell-based. How it is done:
The cells were treated at 37° C. with 25-, 27-, 7α-, 7β-hydroxycholesterol or 7-ketocholesterol at 5.6 μM for 20 hours, then washed with medium and infected with the human rotavirus at an MOI of 0.02 (strain Wa) activated with trypsin. After one hour, the cells were washed and fresh medium was added supplemented with 0.5 μg/ml of porcine trypsin. […] The assay was performed in triplicate and the results were confirmed on Caco2 cells. In an alternative protocol, the MA104 cells were treated with oxysterols—at the concentration indicated above—after the viral inoculum. The one-way variance analysis (ANOVA), followed by the Bonferroni test, was used to evaluate the statistical significance of the virus titre differences between the treated and non-treated samples. The significance was fixed at 95%.
The results of the pre-treatment assays are illustrated in FIGS. 5 (MA104 cells) and 6 (Caco2 cells).

Another assay relates to human rotavirus HRV 408. Kind of assay: Infectivity assay for rotavirus, MA104 cells, strain HRV 408.
In assay [5] the test system is human rhinovirus 1A. The assay can be described thus: Rhinovirus yield reduction assay. As to conditions: HeLa cells, 5.6 μM after infection, collected 5 days after the infection.
Protocol: Each well was inoculated with 200 μl of a stock of human rhinovirus 1A containing approximately 30 PFU per well and incubated for 1 hour. […] The infected cells and the supernatants were collected 5 days after the infection (when a complete CPE was visible), and titred by means of the standard plaque method, as described above.
The next assay concerns HPV PsV (protein L1). The assay can be described thus: Assay for adhesion of the papillomavirus to the cell surface: Western blot analysis. In kind it is cell-based, human papillomavirus. As to conditions: Hela cells treated 16 hours, PsV 4 hours at 4° C. The source says:
L1 was detected using the murine monoclonal antibody (Ab30908, Abcam, Cambridge, UK) at a dilution of 1:2000, followed by secondary antibody IgG-HRP (Santa Cruz Biotechnology Inc.). The actin was detected using an anti-actin murine monoclonal antibody (MAB1501R, Millipore), followed by secondary antibody IgG-HRP (Santa Cruz Biotechnology Inc.).
(Immunoblotting shows a protein as a band on a membrane.)

For the next assay, the system named is rotavirus. The assay can be described thus: Rotavirus cell entry kinetics. It is filed as cell-based. As to conditions: MA104 cells; for entry of the rotavirus into the cells (infective events): 1.9 μM for 20 hours, MOI 0.02. How it is done: To measure the entry speed of the rotavirus into the cells, confluent monolayers of MA104 cells (cultivated in plates with 96 wells) were treated with 25OHC, 27OHC or 7κC at 1.9 μM at 37° C.; after 20 hours, the cells were washed extensively with cold medium and left to cool on ice. […] The non-bound viruses were then eliminated by washing, medium was added at 37° C., and the plates were incubated at 37° C. in a humidified atmosphere. At fixed times (i.e. 0, 15, 30, 45, 60, 75 and 90 minutes after the virus-cell adhesion), the medium was extracted from the wells and the viral particles still present on the surface of the cells were eliminated by means of two rapid washing operations with EGTA 3 mM in PBS, followed by incubation in warm medium. After reaching the last time point (90 minutes from the virus-cell adhesion), the plates with 96 wells were placed in an incubator (37° C., 5% CO2), and the infection was left to proceed for a further 16 hours. The cells were then fixed and coloured as described above. The quantity of viral particles that entered the cells at each time point was compared with the quantity of virus that entered when no washing with EGTA was performed (100% entry). The ANOVA, followed by the Bonferroni test, was used to evaluate the statistical significance of the differences between the treated and non-treated samples. The significance was fixed at the level of 95%.
As a control experiment, the same treatment and infection protocol was performed on MA104 cells, cultivated in a plate with 6 wells. In this experiment, after reaching the last time point of the entry measurement (90 minutes), the cells were lysed, the proteins extracted were denatured by boiling for 5 minutes, then separated by electrophoresis on sodium dodecylsulfate gel with 12% polyacrylamide (SDS-12%PAGE) and transferred to a polyvinylidene difluoride (PVDF) membrane. The protein of the intermediate capsid VP6 was detected using the murine monoclonal antibody 2B4 (mab0036-P, CovalAb) at a dilution 1:750, followed by secondary antibody IgG-HRP (Santa Cruz Biotechnology Inc.). The actin was detected using the anti-actin murine monoclonal antibody MAB1501R (Millipore), followed by antibody IgG-HRP (Santa Cruz Biotechnology Inc.). The density of the bands was compared using the ImageJ software, and the intensity of the actin bands was used to normalize the values. The ANOVA, followed by the Bonferroni test, was used to evaluate the statistical significance of the differences between the treated and the non-treated samples. The significance was fixed at the level of 95%. The results are reported in FIG. 11 and are expressed as a percentage, comparing treated cells with cells incubated with culture medium.

The subject of the next assay is human rotavirus HRV 248. Kind of assay: Infectivity assay for rotavirus, MA104 cells, strain HRV 248.
Assay [6] relates to human rotavirus Wa. Kind of assay: Infectivity assay for rotavirus repeated on Caco2 cells, strain Wa. It is filed as cell-based. As to conditions: Caco-2. The source says: The results of the antiviral assays performed treating with 25OHC and 27OHC were confirmed repeating the infectivity assays on Caco2 cells.
Another assay relates to human papillomavirus. The assay can be described thus: Antiviral assay with U18666A, papillomavirus, HeLa cells. It is filed as cell-based. As to conditions: HeLa cells treated 20 hours. How it is done:
(§1) According to the hypothesis formulated previously, the oxysterols determine an accumulation of the intracellular cholesterol at endosomal level, inhibiting entry of the rotavirus. […] U18666A is an amphipathic steroid, widely used to block the intracellular transport of cholesterol, with consequent accumulation of the same at the level of the endosome membranes (31). In short, antiviral assays were performed treating the MA104 cells (for the rotavirus) or HeLa cells (for the papillomavirus) for 20 hours with scalar concentrations of U18666A (0.07 to 50 μM) and then infecting for one hour with the respective viruses. The effect of the treatment on the infectivity of the two viral models was evaluated as described previously. […] The experiment described therefore constitutes solid proof of the principle of the mechanism of action proposed.

For assay [7], the system named is human rotavirus. Kind of assay: Antiviral assay with U18666A, rotavirus, MA104 cells. In kind it is cell-based. As to conditions: MA104 cells treated 20 hours, 0.07 to 50 μM. How it is done: as §1
[8] abbreviates: pre-treatment assay, 20 hours prior to the infection.
[9] abbreviates: Caco2 cells, pre-treatment 5.6 μM for 20 hours, collected 48 hours after infection.
The mark [10] stands for this setting: MA104 cells, post-infection treatment 5.6 μM.
Where [11] appears, read: MA104 cells, pre-treatment 5.6 μM for 20 hours, collected 48 hours after infection.

Structures are written as SMILES. Like-named read-outs stand apart in the source and are kept apart here.

Protocol for human rotavirus DS-1: as §2, §3
Protocol for human rotavirus HRV 248: as §2, §3
Protocol for human rotavirus HRV 408: as §2, §3
Protocol for human rotavirus WI61: as §2, §3

As for `CC(C)C(O)CC[C@@H](C)[C@H]1CC[C@H]2[C@@H]3CC=C4C[C@@H](O)CC[C@]4(C)[C@H]3CC[C@]12C` (stereo partly shown) [24OHC, 24-hydroxycholesterol], the EC50 with PsV of HPV-16 (Human papillomavirus, HeLa) worked out at 4380 nM; in the assay with human rotavirus Wa [1] it was 390 nM; in the assay on human rhinovirus 1A [2] (setting [8]), 770 nM. The 90% effect concentration (EC90) in the assay on human rotavirus Wa [1] is 1600 nM; with human rhinovirus 1A [2] (setting [8]), 3100 nM.

As for `C[C@@H](CO)CCC[C@@H](C)[C@H]1CC[C@H]2[C@@H]3CC=C4C[C@@H](O)CC[C@]4(C)[C@H]3CC[C@]12C` [27OHC, 27-hydroxycholesterol], the 50% effective concentration (EC50) came out at 720 nM in the assay on human rotavirus DS-1; 6870 nM in the assay on PsV of HPV-16 (C33A cells, treated 16 hours before PsV, read-out: EC50); 9330 nM in the assay with PsV of HPV-16 (Human papillomavirus, HeLa); 28900 nM in the assay with PsV of HPV-16 (Human papillomavirus, SiHa); 260 nM in the assay on human rotavirus Wa [1]; 190 nM in the assay with human rotavirus WI61. The EC50 in the assay with human rotavirus HRV 408 was determined as 400 nM; with human rotavirus HRV 248, 230 nM; in the assay with human rotavirus Wa [6], 440 nM; in the assay with human rhinovirus 1A [2] (post-infection treatment assay), 480 nM; in the assay with human rhinovirus 1A [2] (setting [8]), 620 nM. Moreover, the EC90 with human rotavirus DS-1 is 5850 nM; in the assay with human rotavirus Wa [1], 1730 nM; in the assay with human rotavirus WI61, 740 nM; with human rotavirus HRV 408 it was 4560 nM; in the assay with human rotavirus HRV 248, 3840 nM; in the assay on human rotavirus Wa [6], 2500 nM. For the same compound, the EC90 in the assay with human rhinovirus 1A [2] (post-infection treatment assay) stood at 1270 nM; in the assay with human rhinovirus 1A [2] (setting [8]), 2170 nM. Also, the LXR ligand activity result in the assay on LXR is on record as “optimal ligands of LXR”. Moreover, the “antiviral activity in cells with OSBP silenced” value in the assay on human rotavirus [3] (OSBP siRNA 20 nM) was “higher”. Besides, in the assay on human rotavirus [3] (VAPA siRNA 20 nM), the “antiviral activity in cells with VAP-A silenced” value was “higher”. Moreover, the “induction of TLR4” value in the assay on TLR4 (SH-SY5Y neuroblastoma cells) and in the assay with TLR4 (macrophage cell lines) was “active in inducing TLR4” throughout. The TLR3 expression entry with TLR3 was “marked hyperexpression of TLR3”. The “production of virus progenies” value in [4] (setting [9]) is “significantly limit (p<0.05) the production of virus progenies”; in [4] (setting [10]), “confirm the in vitro effectiveness”; in assay [4] (setting [11]) it was “significantly limit (p<0.05) the production of virus progenies”. For the same compound, the “production of viral progenies” value in the assay on human rhinovirus 1A [5] was “totally inhibit the production of viral progenies”. For the same compound, in the assay on HPV PsV (protein L1), the “adhesion of the PsV to the cell surface (L1 Western blot)” value is reported as “not able to inhibit adhesion of the PsV to the cell surface”. In addition, the “entry of the rotavirus into the cells (infective events)” value in the assay with rotavirus was “able to limit the entry of the viral particles into the cells, shows a lesser effectiveness”. Also, the “viral antigen VP6 within the cells (Western blot)” value with rotavirus (90 minutes after virus-cell adhesion) is recorded as “significantly (p<0.05) lower quantity than the non-treated control”.

Take `CCN(CC)CCO[C@H]1CC[C@@]2(C)C(=CC[C@@H]3[C@@H]2CC[C@]2(C)C(=O)CC[C@@H]32)C1` [U18666A]: in the assay on human papillomavirus, a half-maximal effect (EC50) was put at 1740 nM. Besides, the “inhibition of rotavirus infectivity” value in the assay with human rotavirus [7] was “antiviral activity is so high that calculation of the EC50 is not possible”.

Regarding `CC(C)CCC[C@@H](C)[C@H]1CC[C@H]2[C@@H]3[C@@H](O)C=C4C[C@@H](O)CC[C@]4(C)[C@H]3CC[C@]12C` [7βOHC, 7β-hydroxycholesterol], the “induction of TLR4” value in the assay on TLR4 (SH-SY5Y neuroblastoma cells) is recorded as “active in inducing TLR4”. Besides, the “production of virus progenies” value is “antiviral activity” in [4] (setting [10]) and “significant (P<0.05) antiviral activity” in assay [4] (setting [11]).

For `CC(C)CCC[C@@H](C)[C@H]1CC[C@H]2[C@@H]3C(=O)C=C4C[C@@H](O)CC[C@]4(C)[C@H]3CC[C@]12C` [7κC, 7-ketocholesterol], the LXR ligand activity entry in the assay on LXR is recorded as “no ligand activity”. For the same compound, the entries for the “production of virus progenies” value in assay [4] (setting [9]), in assay [4] (setting [10]) and in [4] (setting [11]) were “significantly limit (p<0.05) the production of virus progenies”, “antiviral activity” and “significantly limit (p<0.05) the production of virus progenies”, respectively. The “entry of the rotavirus into the cells (infective events)” value in the assay on rotavirus was “does not cause a significant reduction (p>0.05) in the number of infective events”.

Turning to `CC(C)CCC[C@@H](C)[C@H]1CC[C@H]2[C@@H]3[C@H](O)C=C4C[C@@H](O)CC[C@]4(C)[C@H]3CC[C@]12C` [7αOHC, 7alpha-hydroxycholesterol], the “inhibition of the infectivity of HPV” value in the assay on PsV of HPV-16 is “not able to inhibit the infectivity of HPV”. For the same compound, the “production of virus progenies” value in assay [4] (setting [10]) is “antiviral activity”.
